According to paper PMC8632988, “Inhibition of SYK and cSrc kinases can protect bone and cartilage in preclinical models of osteoarthritis and rheumatoid arthritis” (Scientific Reports, 2021):

Columns and labels:
Experiment in all cases: Kinase selectivity profile assay
Assay type in all cases: biochemical
SNARK/NUAK2 = target: T1, SNARK/NUAK2 (Homo sapiens, UniProt Q9H093); settings: 500 nM; relative to DMSO; read-out: Residual enzymatic activity
T1 construct: purchased Reaction Biology Corporation
Method in brief: (§1)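 Radiometric kinase assay run by a standard protocol. Unbound phosphate was removed by washing filters in phosphoric acid, and product radioactivity gave percent remaining kinase activity versus DMSO vehicle reactions. Run in duplicate.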

LATS1 = target: T2, LATS1 (Homo sapiens, UniProt O95835); settings: 500 nM; relative to DMSO; read-out: Residual enzymatic activity
T2 construct: purchased Reaction Biology Corporation
Method in brief: as §1

CDK6/cyclin D1 = target: T3, CDK6/cyclin D1 (Homo sapiens, UniProt Q00534); settings: 500 nM; relative to DMSO; read-out: Residual enzymatic activity
T3 construct: purchased Reaction Biology Corporation
Method in brief: as §1

LYN B = target: T4, LYN B (Homo sapiens, UniProt P07948)
T4 construct: purchased Reaction Biology Corporation (assay service)
Method in brief: as §1

CDK2/cyclin A = target: T5, CDK2/cyclin A (Homo sapiens, UniProt P24941); settings: 500 nM; relative to DMSO; read-out: Residual enzymatic activity
T5 construct: purchased Reaction Biology Corporation
Method in brief: as §1

Aurora B = target: T6, Aurora B (Homo sapiens, UniProt Q96GD4); settings: 500 nM; relative to DMSO; read-out: Residual enzymatic activity
T6 construct: purchased Reaction Biology Corporation
Method in brief: as §1

ERK1 = target: T7, ERK1 (Homo sapiens, UniProt P27361); settings: 500 nM; relative to DMSO; read-out: Residual enzymatic activity
T7 construct: purchased Reaction Biology Corporation
Method in brief: as §1

P38d/MAPK13 = target: T8, P38d/MAPK13 (Homo sapiens, UniProt O15264); settings: 500 nM; relative to DMSO; read-out: Residual enzymatic activity
T8 construct: purchased Reaction Biology Corporation
Method in brief: as §1

ABL1 = target: T9, ABL1 (Homo sapiens, UniProt P00519); settings: 500 nM, relative to DMSO
T9 construct: purchased Reaction Biology Corporation
Method in brief: as §1

TIE2/TEK = target: T10, TIE2/TEK (Homo sapiens, UniProt Q02763); settings: 500 nM; relative to DMSO
T10 construct: purchased Reaction Biology Corporation
Method in brief: as §1

NEK3 = target: T11, NEK3 (Homo sapiens, UniProt P51956); settings: 500 nM; relative to DMSO; read-out: Residual enzymatic activity
T11 construct: purchased Reaction Biology Corporation
Method in brief: as §1

CDK4/cyclin D3 = target: T12, CDK4/cyclin D3 (Homo sapiens, UniProt P11802); settings: 500 nM; relative to DMSO; read-out: Residual enzymatic activity
T12 construct: purchased Reaction Biology Corporation
Method in brief: as §1

CDK4/cyclin D1 = target: T13, CDK4/cyclin D1 (Homo sapiens, UniProt P11802); settings: 500 nM; relative to DMSO; read-out: Residual enzymatic activity
T13 construct: purchased Reaction Biology Corporation
Method in brief: as §1

CAMK2b = target: T14, CAMK2b (Homo sapiens, UniProt Q13554); settings: 500 nM; relative to DMSO; read-out: Residual enzymatic activity
T14 construct: purchased Reaction Biology Corporation
Method in brief: as §1

DDR1 = target: T15, DDR1 (Homo sapiens, UniProt Q08345)
T15 construct: purchased Reaction Biology Corporation (assay service)
Method in brief: as §1

MSSK1/STK23 = target: T16, MSSK1/STK23 (Homo sapiens, UniProt Q9UPE1); settings: 500 nM; relative to DMSO; read-out: Residual enzymatic activity
T16 construct: purchased Reaction Biology Corporation
Method in brief: as §1

NEK4 = target: T17, NEK4 (Homo sapiens, UniProt P51957); settings: 500 nM; relative to DMSO; read-out: Residual enzymatic activity
T17 construct: purchased Reaction Biology Corporation
Method in brief: as §1

AKT2 = target: T18, AKT2 (Homo sapiens, UniProt P31751); settings: 500 nM; relative to DMSO; read-out: Residual enzymatic activity
T18 construct: purchased Reaction Biology Corporation
Method in brief: as §1

DYRK1B = target: T19, DYRK1B (Homo sapiens, UniProt Q9Y463); settings: 500 nM; relative to DMSO; read-out: Residual enzymatic activity
T19 construct: purchased Reaction Biology Corporation
Method in brief: as §1

PKCb1 = target: T20, PKCb1 (Homo sapiens, UniProt P05771); settings: 500 nM; relative to DMSO; read-out: Residual enzymatic activity
T20 construct: purchased Reaction Biology Corporation
Method in brief: as §1

ROCK1 = target: T21, ROCK1 (Homo sapiens, UniProt Q13464); settings: 500 nM; relative to DMSO; read-out: Residual enzymatic activity
T21 construct: purchased Reaction Biology Corporation
Method in brief: as §1

TAOK3/JIK = target: T22, TAOK3/JIK (Homo sapiens, UniProt Q9H2K8); settings: 500 nM; relative to DMSO; read-out: Residual enzymatic activity
T22 construct: purchased Reaction Biology Corporation
Method in brief: as §1

CLK1 = target: T23, CLK1 (Homo sapiens, UniProt P49759); settings: 500 nM; relative to DMSO; read-out: Residual enzymatic activity
T23 construct: purchased Reaction Biology Corporation
Method in brief: as §1

LKB1 = target: T24, LKB1 (Homo sapiens, UniProt Q15831); settings: 500 nM; relative to DMSO; read-out: Residual enzymatic activity
T24 construct: purchased Reaction Biology Corporation
Method in brief: as §1

MEKK3 = target: T25, MEKK3 (Homo sapiens, UniProt Q99759); settings: 500 nM; relative to DMSO; read-out: Residual enzymatic activity
T25 construct: purchased Reaction Biology Corporation
Method in brief: as §1

CDK1/cyclin E = target: T26, CDK1/cyclin E (Homo sapiens, UniProt P06493); settings: 500 nM; relative to DMSO; read-out: Residual enzymatic activity
T26 construct: purchased Reaction Biology Corporation
Method in brief: as §1

WNK1 = target: T27, WNK1 (Homo sapiens, UniProt Q9H4A3); settings: 500 nM; relative to DMSO; read-out: Residual enzymatic activity
T27 construct: purchased Reaction Biology Corporation
Method in brief: as §1

JNK3 = target: T28, JNK3 (Homo sapiens, UniProt P53779); settings: 500 nM; relative to DMSO; read-out: Residual enzymatic activity
T28 construct: purchased Reaction Biology Corporation
Method in brief: as §1

RIPK5 = target: T29, RIPK5 (Homo sapiens, UniProt Q6XUX3); settings: 500 nM; relative to DMSO; read-out: Residual enzymatic activity
T29 construct: purchased Reaction Biology Corporation
Method in brief: as §1

ALK6/BMPR1B = target: T30, ALK6/BMPR1B (Homo sapiens, UniProt O00238); settings: 500 nM; relative to DMSO; read-out: Residual enzymatic activity
T30 construct: purchased Reaction Biology Corporation
Method in brief: as §1

RON/MST1R = target: T31, RON/MST1R (Homo sapiens, UniProt Q04912); settings: 500 nM; relative to DMSO; read-out: Residual enzymatic activity
T31 construct: purchased Reaction Biology Corporation
Method in brief: as §1

FLT1/VEGFR1 = target: T32, FLT1/VEGFR1 (Homo sapiens, UniProt P17948); settings: 500 nM, relative to DMSO
T32 construct: purchased Reaction Biology Corporation
Method in brief: as §1

WEE1 = target: T33, WEE1 (Homo sapiens, UniProt P30291); settings: 500 nM; relative to DMSO; read-out: Residual enzymatic activity
T33 construct: purchased Reaction Biology Corporation
Method in brief: as §1

EPHB2 = target: T34, EPHB2 (Homo sapiens, UniProt P29323); settings: 500 nM; relative to DMSO
T34 construct: purchased Reaction Biology Corporation
Method in brief: as §1

MLCK/MYLK = target: T35, MLCK/MYLK (Homo sapiens, UniProt Q15746); settings: 500 nM; relative to DMSO; read-out: Residual enzymatic activity
T35 construct: purchased Reaction Biology Corporation
Method in brief: as §1

MRCKb/CDC42BPB = target: T36, MRCKb/CDC42BPB (Homo sapiens, UniProt Q9Y5S2); settings: 500 nM; relative to DMSO; read-out: Residual enzymatic activity
T36 construct: purchased Reaction Biology Corporation
Method in brief: as §1

FGFR1 = target: T37, FGFR1 (Homo sapiens, UniProt P11362); settings: 500 nM; relative to DMSO
T37 construct: purchased Reaction Biology Corporation
Method in brief: as §1

OSR1/OXSR1 = target: T38, OSR1/OXSR1 (Homo sapiens, UniProt O95747); settings: 500 nM; relative to DMSO; read-out: Residual enzymatic activity
T38 construct: purchased Reaction Biology Corporation
Method in brief: as §1

HPK1/MAP4K1 = target: T39, HPK1/MAP4K1 (Homo sapiens, UniProt Q92918); settings: 500 nM; relative to DMSO; read-out: Residual enzymatic activity
T39 construct: purchased Reaction Biology Corporation
Method in brief: as §1

[1] = 500 nM, relative to DMSO, read-out: Residual enzymatic activity
[2] = 10-dose mode, threefold serial dilution from 10 μM
[3] = read-out: Residual enzymatic activity

T15 sequence (Q08345 19-913): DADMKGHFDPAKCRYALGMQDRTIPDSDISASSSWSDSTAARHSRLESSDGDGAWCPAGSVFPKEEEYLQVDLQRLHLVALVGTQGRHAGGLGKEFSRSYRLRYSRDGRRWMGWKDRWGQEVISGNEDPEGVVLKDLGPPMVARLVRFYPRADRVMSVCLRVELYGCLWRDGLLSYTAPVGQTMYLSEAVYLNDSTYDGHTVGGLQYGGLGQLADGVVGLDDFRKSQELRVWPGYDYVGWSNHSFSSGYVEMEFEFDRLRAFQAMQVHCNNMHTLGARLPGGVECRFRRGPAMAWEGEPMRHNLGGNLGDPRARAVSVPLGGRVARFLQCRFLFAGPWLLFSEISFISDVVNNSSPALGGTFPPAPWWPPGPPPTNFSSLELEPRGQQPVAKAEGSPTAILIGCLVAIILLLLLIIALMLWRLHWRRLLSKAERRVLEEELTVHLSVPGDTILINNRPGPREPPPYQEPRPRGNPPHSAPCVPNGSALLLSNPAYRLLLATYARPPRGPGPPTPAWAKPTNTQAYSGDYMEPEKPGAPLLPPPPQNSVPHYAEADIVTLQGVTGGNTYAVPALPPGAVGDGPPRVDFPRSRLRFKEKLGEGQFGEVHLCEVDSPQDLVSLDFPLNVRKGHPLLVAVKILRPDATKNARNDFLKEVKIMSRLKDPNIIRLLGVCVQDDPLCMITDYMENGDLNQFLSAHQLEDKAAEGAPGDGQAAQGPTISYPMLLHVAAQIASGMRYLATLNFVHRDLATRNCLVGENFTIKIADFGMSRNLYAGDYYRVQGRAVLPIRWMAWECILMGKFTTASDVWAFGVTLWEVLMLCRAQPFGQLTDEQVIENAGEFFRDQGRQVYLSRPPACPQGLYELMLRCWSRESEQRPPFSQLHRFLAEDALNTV
T9 sequence (P00519 whole entry): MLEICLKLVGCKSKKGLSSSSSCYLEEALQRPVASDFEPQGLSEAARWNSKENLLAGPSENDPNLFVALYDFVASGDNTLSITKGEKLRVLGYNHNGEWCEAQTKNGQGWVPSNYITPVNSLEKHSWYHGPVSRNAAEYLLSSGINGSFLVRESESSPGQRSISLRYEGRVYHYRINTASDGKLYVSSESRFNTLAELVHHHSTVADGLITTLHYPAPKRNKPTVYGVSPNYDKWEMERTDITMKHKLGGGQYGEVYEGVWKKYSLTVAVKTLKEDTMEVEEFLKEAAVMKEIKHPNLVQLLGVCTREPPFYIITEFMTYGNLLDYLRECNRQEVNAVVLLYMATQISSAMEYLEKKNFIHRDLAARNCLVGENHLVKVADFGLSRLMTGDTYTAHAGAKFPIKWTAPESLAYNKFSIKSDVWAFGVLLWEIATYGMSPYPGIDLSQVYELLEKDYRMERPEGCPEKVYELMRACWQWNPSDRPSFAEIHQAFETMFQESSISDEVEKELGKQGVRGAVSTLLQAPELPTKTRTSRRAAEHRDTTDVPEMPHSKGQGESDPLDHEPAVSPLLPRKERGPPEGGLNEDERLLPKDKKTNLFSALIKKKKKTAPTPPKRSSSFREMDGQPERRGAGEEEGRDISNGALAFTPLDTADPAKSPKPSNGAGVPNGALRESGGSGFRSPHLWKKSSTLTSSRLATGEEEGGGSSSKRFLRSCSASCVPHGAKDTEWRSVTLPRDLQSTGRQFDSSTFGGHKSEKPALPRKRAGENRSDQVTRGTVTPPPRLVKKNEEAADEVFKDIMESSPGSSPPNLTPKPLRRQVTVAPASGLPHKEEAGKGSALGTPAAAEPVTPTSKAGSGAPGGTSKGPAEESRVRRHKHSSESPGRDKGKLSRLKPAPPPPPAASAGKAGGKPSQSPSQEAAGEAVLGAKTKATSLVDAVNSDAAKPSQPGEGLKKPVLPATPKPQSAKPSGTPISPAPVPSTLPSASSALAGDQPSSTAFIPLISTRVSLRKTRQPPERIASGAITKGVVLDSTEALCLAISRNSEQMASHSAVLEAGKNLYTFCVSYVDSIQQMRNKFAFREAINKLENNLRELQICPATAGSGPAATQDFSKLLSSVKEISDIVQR
T4 sequence (P07948 1-491 isoform P07948-2): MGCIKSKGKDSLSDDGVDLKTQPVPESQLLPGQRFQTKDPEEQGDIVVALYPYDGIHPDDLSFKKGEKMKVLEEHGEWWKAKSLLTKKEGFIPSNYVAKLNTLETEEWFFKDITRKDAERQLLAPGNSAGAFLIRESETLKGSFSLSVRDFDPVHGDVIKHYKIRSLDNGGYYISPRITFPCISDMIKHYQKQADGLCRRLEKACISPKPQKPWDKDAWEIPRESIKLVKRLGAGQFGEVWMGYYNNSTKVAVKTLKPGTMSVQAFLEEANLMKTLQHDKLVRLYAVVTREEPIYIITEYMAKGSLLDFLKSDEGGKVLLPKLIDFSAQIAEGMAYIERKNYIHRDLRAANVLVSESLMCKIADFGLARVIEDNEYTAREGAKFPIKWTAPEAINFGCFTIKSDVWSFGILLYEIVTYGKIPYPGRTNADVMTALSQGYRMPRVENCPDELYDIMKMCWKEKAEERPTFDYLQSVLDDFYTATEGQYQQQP
T32 sequence (P17948 27-1338): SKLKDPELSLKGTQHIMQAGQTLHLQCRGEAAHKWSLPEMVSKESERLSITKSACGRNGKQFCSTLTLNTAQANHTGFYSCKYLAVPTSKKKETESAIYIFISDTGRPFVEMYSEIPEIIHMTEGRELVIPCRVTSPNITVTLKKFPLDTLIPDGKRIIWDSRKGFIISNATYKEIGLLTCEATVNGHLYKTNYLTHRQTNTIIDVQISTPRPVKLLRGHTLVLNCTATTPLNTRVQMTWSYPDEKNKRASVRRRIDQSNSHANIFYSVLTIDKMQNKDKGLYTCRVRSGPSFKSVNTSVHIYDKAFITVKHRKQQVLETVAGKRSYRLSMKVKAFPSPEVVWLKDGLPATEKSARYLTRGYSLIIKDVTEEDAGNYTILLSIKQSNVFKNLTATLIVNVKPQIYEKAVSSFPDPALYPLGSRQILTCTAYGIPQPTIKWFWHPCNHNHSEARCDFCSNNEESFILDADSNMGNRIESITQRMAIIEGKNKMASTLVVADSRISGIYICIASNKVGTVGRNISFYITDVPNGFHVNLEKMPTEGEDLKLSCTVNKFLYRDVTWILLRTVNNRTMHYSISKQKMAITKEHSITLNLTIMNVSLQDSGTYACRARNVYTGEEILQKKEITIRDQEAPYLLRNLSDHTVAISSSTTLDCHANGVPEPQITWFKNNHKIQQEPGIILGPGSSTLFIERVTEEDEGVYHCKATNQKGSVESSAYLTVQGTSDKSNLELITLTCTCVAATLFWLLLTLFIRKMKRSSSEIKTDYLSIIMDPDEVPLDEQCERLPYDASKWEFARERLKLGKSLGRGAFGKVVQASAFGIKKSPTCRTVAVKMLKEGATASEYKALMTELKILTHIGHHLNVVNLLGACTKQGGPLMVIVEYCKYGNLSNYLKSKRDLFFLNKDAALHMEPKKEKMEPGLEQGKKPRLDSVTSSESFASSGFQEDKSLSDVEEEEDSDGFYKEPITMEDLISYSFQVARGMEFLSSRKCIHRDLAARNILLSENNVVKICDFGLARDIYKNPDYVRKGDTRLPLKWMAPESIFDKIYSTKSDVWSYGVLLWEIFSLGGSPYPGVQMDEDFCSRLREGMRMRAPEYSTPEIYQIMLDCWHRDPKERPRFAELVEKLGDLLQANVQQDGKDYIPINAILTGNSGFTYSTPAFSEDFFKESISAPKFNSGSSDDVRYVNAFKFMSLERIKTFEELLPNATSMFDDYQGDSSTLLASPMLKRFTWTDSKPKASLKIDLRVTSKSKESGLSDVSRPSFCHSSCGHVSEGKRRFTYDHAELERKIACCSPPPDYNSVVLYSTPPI
T8 sequence (O15264 whole entry): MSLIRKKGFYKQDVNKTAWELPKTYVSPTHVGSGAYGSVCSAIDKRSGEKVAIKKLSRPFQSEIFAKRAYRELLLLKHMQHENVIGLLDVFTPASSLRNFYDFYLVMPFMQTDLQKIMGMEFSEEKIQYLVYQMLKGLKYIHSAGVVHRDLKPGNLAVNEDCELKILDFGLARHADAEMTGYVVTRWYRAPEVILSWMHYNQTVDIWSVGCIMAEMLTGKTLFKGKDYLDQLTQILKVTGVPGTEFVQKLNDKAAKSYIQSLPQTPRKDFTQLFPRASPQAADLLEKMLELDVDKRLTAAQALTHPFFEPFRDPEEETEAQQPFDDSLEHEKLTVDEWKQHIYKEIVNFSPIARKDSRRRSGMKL
T12 sequence (P11802 whole entry): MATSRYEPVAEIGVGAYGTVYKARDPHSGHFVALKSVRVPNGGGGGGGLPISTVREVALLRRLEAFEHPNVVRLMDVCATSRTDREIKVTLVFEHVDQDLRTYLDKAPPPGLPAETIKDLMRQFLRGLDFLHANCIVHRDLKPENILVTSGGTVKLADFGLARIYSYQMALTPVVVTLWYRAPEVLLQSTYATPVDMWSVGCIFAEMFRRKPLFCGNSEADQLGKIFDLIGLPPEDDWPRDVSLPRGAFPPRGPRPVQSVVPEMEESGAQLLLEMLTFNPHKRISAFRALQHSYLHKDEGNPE
T12 sequence (P30281 whole entry partner): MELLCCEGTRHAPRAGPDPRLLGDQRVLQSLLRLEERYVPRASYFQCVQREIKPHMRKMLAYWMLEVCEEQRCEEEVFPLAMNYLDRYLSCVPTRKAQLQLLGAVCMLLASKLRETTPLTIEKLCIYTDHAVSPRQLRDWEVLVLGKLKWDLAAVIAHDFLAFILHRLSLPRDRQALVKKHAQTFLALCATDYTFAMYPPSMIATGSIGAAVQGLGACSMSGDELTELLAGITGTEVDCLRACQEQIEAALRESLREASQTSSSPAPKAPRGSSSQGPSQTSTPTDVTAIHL

Structure (SMILES): COc1cc(Nc2ncnc(Nc3cc4c(cn3)NC(=O)C(C)(C)O4)n2)cc(OC)c1OC [MT-SYK-03]
- remaining activity at 0.5 µM (SNARK/NUAK2): 102%
- remaining activity at 0.5 µM (LATS1): 99.4%
- remaining activity at 0.5 µM (CDK6/cyclin D1): 91.8%
- remaining activity at 0.5 µM (LYN B; [1]): 25.7%
- IC50 (LYN B; [2]): 14.2 nM
- remaining activity at 0.5 µM (CDK2/cyclin A): 83.1%
- remaining activity at 0.5 µM (Aurora B): 78.6%
- remaining activity at 0.5 µM (ERK1): 119%
- remaining activity at 0.5 µM (P38d/MAPK13): 119%
- Residual enzymatic activity (ABL1): 68.0%
- remaining activity at 0.5 µM (ABL1; [3]): > 54%
- Residual enzymatic activity (TIE2/TEK): 92.9%
- remaining activity at 0.5 µM (NEK3): 72%
- remaining activity at 0.5 µM (CDK4/cyclin D3): 100%
- remaining activity at 0.5 µM (CDK4/cyclin D1): 109%
- remaining activity at 0.5 µM (CAMK2b): 97.7%
- remaining activity at 0.5 µM (DDR1; [1]): 4.7%
- IC50 (DDR1; [2]): 1.8 nM
- inhibition at 0.5 µM (DDR1; read-out: Inhibition at 500 nM): > 90%
- remaining activity at 0.5 µM (MSSK1/STK23): 106%
- remaining activity at 0.5 µM (NEK4): 109%
- remaining activity at 0.5 µM (AKT2): 106%
- remaining activity at 0.5 µM (DYRK1B): 90.6%
- remaining activity at 0.5 µM (PKCb1): 104%
- remaining activity at 0.5 µM (ROCK1): 95.1%
- remaining activity at 0.5 µM (TAOK3/JIK): 108%
- remaining activity at 0.5 µM (CLK1): 90.4%
- remaining activity at 0.5 µM (LKB1): 101%
- remaining activity at 0.5 µM (MEKK3): 116%
- remaining activity at 0.5 µM (CDK1/cyclin E): 94.6%
- remaining activity at 0.5 µM (WNK1): 106%
- remaining activity at 0.5 µM (JNK3): 96.4%
- remaining activity at 0.5 µM (RIPK5): 104%
- remaining activity at 0.5 µM (ALK6/BMPR1B): 143%
- remaining activity at 0.5 µM (RON/MST1R): 98.4%
- Residual enzymatic activity (FLT1/VEGFR1): did not inhibit
- remaining activity at 0.5 µM (FLT1/VEGFR1; [3]): 65.4%
- remaining activity at 0.5 µM (WEE1): 108%
- Residual enzymatic activity (EPHB2): 77.7%
- remaining activity at 0.5 µM (MLCK/MYLK): 96.2%
- remaining activity at 0.5 µM (MRCKb/CDC42BPB): 103%
- Residual enzymatic activity (FGFR1): 77.5%
- remaining activity at 0.5 µM (OSR1/OXSR1): 98.2%
- remaining activity at 0.5 µM (HPK1/MAP4K1): 107%
